Test results: patent US20130209403A1, “USE OF INHIBITORS OF PHOSPHOLIPASE A2 FOR THE TREATMENT OR PREVENTION OF FLAVIVIRUS INFECTION” (Ruprecht-Karls-Universitaet, priority 2010, published 2013)

Tests used:
HCV [1] = conditions: Jc1-transfected cells, 0, 5, 10 and 20 μM, added 42 h after transfection
Method: This example employs a standard bioassay for determining the effect of the cPLA2α inhibitor pyrrolidine-2 on the production of Jc1-transfected cells. The general assay set up is shown in
FIG. 2. The assay was performed according to standard protocols and materials were purchased from commercial suppliers and used according to respective manuals supplied therewith. Pyrrolidine-2 was added to the cells 42 h after transfection at […] the indicated final concentrations of 0, 5, 10 and 20 μM.

[2] = 20 μm pyrrolidine-2 compared to DMSO; FIG. 5
Method: (§1) The assay was performed according to standard protocols and materials were purchased from commercial suppliers and used according to respective manuals supplied therewith.

HCV [3] = conditions: 20 μm pyrrolidine-2 vs untreated cells; FIG. 4B
Method: as §1

HCV core protein = conditions: lipid droplet fractions; 20 μm pyrrolidine-2 vs untreated cells; FIG. 8A-C
Excerpt: Standard ELISA and Western Blot protocols were used for the analysis of lipid droplet fractions of untreated cells and cells treated with 20 μm pyrrolidine-2.

DENV [4] = conditions: Huh-7.5 cells, DV-R2A, 0, 5, 10 and 20 μM, added 42 h after transfection
Method: This example employs a standard bioassay for determining the effect of the cPLA2α inhibitor pyrrolidine-2 on the production of Huh-7.5 cells transfected with dengue virus RNA DV-R2A. The assay was performed according to standard protocols and materials were purchased from commercial suppliers and used according to respective manuals supplied therewith. Pyrrolidine-2 was added to the cells 42 h after transfection at the indicated final concentrations of 0, 5, 10 and 20 μM.

HCV [5] = conditions: 20 μm pyrrolidine-2 vs untreated cells, FIG. 7
ApoB = conditions: Mock- and Jc1-transfected cells; 20 μm pyrrolidine-2; FIG. 9
Excerpt: (§2) A standard ELISA protocol was employed for assessing the relevance of cPLA2α activity for release of lipoproteins carrying ApoB and ApoE.

ApoE = conditions: Mock- and Jc1-transfected cells; 20 μm pyrrolidine-2; FIG. 9
Excerpt: as §2

DENV [6] = assay: Infectivity of DENV, limiting dilution titration assay
Excerpt: A standard limiting dilution titration assay was employed for assessing the relevance of cPLA2α activity for release of infectious DENV particles.

For CC(C)CN(Cc1ccccc1-c1ccccc1)[C@@H]1C[C@@H](CNC(=O)C=Cc2ccc(C=C3SC(=O)NC3=O)cc2)N(C(=O)c2ccccc2C(=O)c2ccc(F)cc2F)C1.Cl [pyrrolidine-2, N-{(2S,4R)-4-(Biphenyl-2-ylmethyl-isobutyl-amino)-1-[2-(2,4-difluorobenzoyl)-benzoyl]-pyrrolidin-2-ylmethyl}-3-[4-(2,4-dioxothiazolidin-5-ylidenemethyl)-phenyl]acrylamide, HCl], the “RNA replication of HCV” value (HCV [1]; FIG. 3A) was “not affected”, the “release of infectious HCV particles” value (HCV [1]; FIG. 3B) was “potently inhibited in a dose-dependent manner” and the cytotoxicity [2] was “did not show any cytotoxicity”. For the same compound, the viral entry (HCV [3]) was “does not influence viral entry”, the “quantity of lipid droplet associated core protein” value (HCV core protein) was “reduced” and the “RNA replication of DENV” value (DENV [4]; FIG. 11A) was “only slightly affected”. The “release of infectious DENV particles” value (DENV [4]; FIG. 11B) was “potently inhibited in a dose-dependent manner”, the “lowering of intracellular virus titer” value (HCV [5]) was “about 10 fold” and the “reduction of extracellular virus titers” value (HCV [5]) was 100 fold. For the same compound, the “reduction of the quantity of secreted ApoB” value (ApoB) was “more than 50%”, the “reduction of the quantity of secreted ApoE” value (ApoE) was “more than 50%” and the “inactivation of released infectious DENV particles” value (DENV [6]; particles produced in the absence of the inhibitor, then treated with 20 μm pyrrolidine-2, FIG. 12B) was “does not inactivate released infectious particles”. The “reduction of the quantity of released infectious DENV particles” value (DENV [6]; transfected Huh-7.5 cells treated with 20 μm pyrrolidine-2, FIG. 12A) was “more than 3 orders of magnitude”.
